# US4215069A, “Arylthiovinylcyclopropanecarboxylate intermediates” (FMC Corporation, priority 1979, dated 1980)
# Experiments:
# Southern armyworm = assay: 7-day residual contact activity against southern armyworm (percent kill); assay type: in vivo; details: Spodoptera eridania, 168 h, treated surface aged seven days in light and air, read-out: Percent Kill AW, 7-day residual activity
# Procedure: (§1) The test compound was dissolved in a small amount of acetone, and the acetone solution was dispersed in water containing one drop of isooctylphenyl polyethoxyethanol to make a solution having 1250 ppm (w/w) active ingredient. Aliquots of this solution were diluted with an appropriate amount of water to provide solutions containing various concentrations of active ingredient. Test organisms and techniques were as follows: the activity against Mexican bean beetle (Epilachna varivestis Muls.) and southern armyworm (Spodoptera eridania [Cram.]) was evaluated by dipping the leaves of pinto bean plants into the test solution and infesting the leaves with the appropriate immature-form insects when the foliage had dried. The activity against the pea aphid (Acyrthosiphon pisum [Harris]) was evaluated on broad bean plants whose leaves were dipped before infestation with adult aphids. The activity against twospotted spider mites (Tetranychus urticae Koch) was evaluated on pinto bean plants whose leaves were dipped after infestation with adult mites. The activity against the milkweed bug (Oncopeltus faciatus [Dallas]) was evaluated by spraying the test solutions into glass dishes or jars containing the adult insects. Following application of the compound and infestation the tests were maintained in a holding room at 80° F. and 50% relative humidity for an exposure period of 72 hours. At the end of this time the dead and living insects or mites were counted and the percent kill was calculated. Results of these tests are summarized in Table I. Most of the compounds tested were active against all the insects.
# (§2) The residual contact activity of certain of the compounds was determined on the same organisms using the techniques described above, except that in each case the treated surface was allowed to dry and was exposed to normal light and air for seven days before introduction of the mites or insects. The seven day residual activity was minimal for the mite but substantial against the remaining organisms. Again, the remarkable activity of some of these compounds against milkweed bug and Mexican bean beetle was noted.
# [1] = tested on: pea aphid (Acyrthosiphon pisum [Harris]); assay: Initial contact activity against pea aphid (percent kill); assay type: in vivo; details: 72 hours exposure, read-out: Percent Kill PA, initial activity
# Procedure: as §1
# [2] = tested on: milkweed bug (Oncopeltus faciatus [Dallas]); assay: Initial contact activity against milkweed bug (percent kill); assay type: in vivo; details: 72 hours exposure, read-out: Percent Kill MWB, initial activity
# Procedure: as §1
# Pea aphid = assay: 7-day residual contact activity against pea aphid (percent kill); assay type: in vivo; details: Acyrthosiphon pisum, 168 h, treated surface aged seven days in light and air, read-out: Percent Kill PA, 7-day residual activity
# Procedure: as §1, §2
# [3] = tested on: Mexican bean beetle (Epilachna varivestis Muls.); assay: Initial contact activity against Mexican bean beetle (percent kill); assay type: in vivo; details: 72 hours exposure, read-out: Percent Kill MBB, initial activity
# Procedure: as §1
# [4] = tested on: southern armyworm (Spodoptera eridania [Cram.]); assay: Initial contact activity against southern armyworm (percent kill); assay type: in vivo; details: 72 hours exposure, read-out: Percent Kill AW, initial activity
# Procedure: as §1
# Twospotted spider mite = assay: 7-day residual contact activity against twospotted spider mite (percent kill); assay type: in vivo; details: Tetranychus urticae, 168 h, treated surface aged seven days in light and air, read-out: Percent Kill SM, 7-day residual activity
# Procedure: as §1, §2
# [5] = tested on: twospotted spider mites (Tetranychus urticae Koch); assay: Initial contact activity against twospotted spider mite (percent kill); assay type: in vivo; details: 72 hours exposure, read-out: Percent Kill SM, initial activity
# Procedure: as §1
# Milkweed bug = assay: 7-day residual contact activity against milkweed bug (percent kill); assay type: in vivo, Oncopeltus faciatus; details: Oncopeltus fasciatus, 168 h, treated surface aged seven days in light and air, read-out: Percent Kill MWB, 7-day residual activity
# Procedure: as §1, §2
Structure (SMILES),activity at 20 ppm (Southern armyworm) [%],activity at 78 ppm (Southern armyworm) [%],activity at 312 ppm (Southern armyworm) [%],activity at 1250 ppm (Southern armyworm) [%],mortality at 20 ppm [1] [%],mortality at 78 ppm [1] [%],mortality at 312 ppm [1] [%],mortality at 1250 ppm [1] [%],mortality at 20 ppm [2] [%],mortality at 78 ppm [2] [%],mortality at 312 ppm [2] [%],mortality at 1250 ppm [2] [%],activity at 78 ppm (Pea aphid) [%],activity at 312 ppm (Pea aphid) [%],activity at 1250 ppm (Pea aphid) [%],mortality at 1.2 ppm [3] [%],mortality at 5 ppm [3] [%],mortality at 20 ppm [3] [%],mortality at 78 ppm [3] [%],mortality at 1250 ppm [3] [%],further results
"CC1(C)C(C=CSc2ccccc2)C1C(=O)OC(C#N)c1cccc(Oc2ccccc2)c1 (mixture of isomers) [Example 2, α-cyano-3-phenoxybenzyl cis,trans-3-[2-(E,Z)-phenylthioethenyl]-2,2-dimethylcyclopropanecarboxylate]",0,0,0,0,0,0,5,75,0,20,90,100,30,23,100,6,0,22,80,100,mortality at 1.2 ppm [4]: 0%; mortality at 5 ppm [4]: 0%; mortality at 20 ppm [4]: 0%; mortality at 78 ppm [4]: 0%; mortality at 1250 ppm [4]: 41%; activity at 1250 ppm (Twospotted spider mite): 0%; mortality at 20 ppm [5]: 0%; mortality at 78 ppm [5]: 0%; mortality at 312 ppm [5]: 0%; mortality at 1250 ppm [5]: 0%; activity at 78 ppm (Milkweed bug): 5%; activity at 312 ppm (Milkweed bug): 0%; activity at 1250 ppm (Milkweed bug): 5%
"CC1(C)C(C=CSc2ccccc2)C1C(=O)OCc1cccc(Oc2ccccc2)c1 (mixture of isomers) [Example 1, 3-phenoxybenzyl cis,trans-3-[2-(E,Z)-phenylthioethenyl]-2,2-dimethylcyclopropanecarboxylate]",0,0,0,0,0,0,0,0,10,10,5,30,0,10,30,44,28,0,62,100,mortality at 1.2 ppm [4]: 0%; mortality at 5 ppm [4]: 0%; mortality at 20 ppm [4]: 0%; mortality at 78 ppm [4]: 0%; mortality at 1250 ppm [4]: 0%; activity at 1250 ppm (Twospotted spider mite): 0%; mortality at 20 ppm [5]: 0%; mortality at 78 ppm [5]: 0%; mortality at 312 ppm [5]: 0%; mortality at 1250 ppm [5]: 0%; activity at 78 ppm (Milkweed bug): 5%; activity at 312 ppm (Milkweed bug): 10%; activity at 1250 ppm (Milkweed bug): 0%
